This is an account of results in patent US11814623B2, “Methods of treating a wound using epigenetic regulation” (University of Massachusetts, priority 2018, dated 2023).

In one data set the test system is HSCs from db/db mice. The experiment in a line: Intracellular ROS (DCF) in HSCs of db/db mice given NAC. In kind it is in vivo, mouse. Conditions: NAC 150 mg/kg/day via drinking water for 8 weeks, FIG. 6A. The source says:
8-12 weeks old male C57BL/6J wild type (WT) and […] (db/db) mice were used in the studies. All mice were purchased from Jackson Laboratories and were maintained in mouse barrier facilities. Care and use of mice was in accordance with NIH guidelines and the Institutional Animal Care and Use Committee of the University of Massachusetts Medical School approved protocols. db/db and WT mice were fed standard chow diet (5.4 g/100 g diet, 0% cholesterol) and HFD mice were generated by feeding C57BL/6J mice a high fat diet (60% fat calories; Research Diet, New Brunswick, N.J.). N-acetylcysteine (NAC) was given for 8 weeks (150 mg/kg/day via drinking water. Whole bone marrow cells were flushed out from femurs and tibialis. Bone marrow cells were stained with antibodies for the identification of HSCs (c-Kit^+Scal^+lineage^-CD90.1^lo/-). The antibodies used were: c-Kit (1:50, eBioscience 12-1171, clone: 2B8), Sca-1 (1:50, eBioscience 11-5981, clone: D7), CD90.1 (1:50, eBioscience 45-0900, clone:[…]) and a lineage cocktail antibody (1:50, BD Bioscience 558074). As for the gating strategy for flow cytometry, we first gated on single, viable cells and eliminated any debris, dead cells and clumps or doublets. Next, gates were drawn on the c-Kitpositive/Scal-positive/lineage-negative/CD90.1^low-negative population for HSC sorting. […]

The test system of data set [1] is bone marrow monocytes of db/db mice. In words: CD115+CD11b+ monocyte concentration in bone marrow by flow cytometry. In kind it is in vivo, mouse. The conditions noted are these: NAC 150 mg/kg/day via drinking water for 8 weeks, FIG. 6C. The source says:
8-12 weeks old male C57BL/6J wild type (WT) and […] (db/db) mice were used in the studies. All mice were purchased from Jackson Laboratories and were maintained in mouse barrier facilities. Care and use of mice was in accordance with NIH guidelines and the Institutional Animal Care and Use Committee of the University of Massachusetts Medical School approved protocols. db/db and WT mice were fed standard chow diet (5.4 g/100 g diet, 0% cholesterol) and HFD mice were generated by feeding C57BL/6J mice a high fat diet (60% fat calories; Research Diet, New Brunswick, N.J.). N-acetylcysteine (NAC) was given for 8 weeks (150 mg/kg/day via drinking water.

For another data set, the system named is Dnmt1. The experiment in a line: Dnmt1 expression in HSCs (qRT-PCR, Western blot). The data set is classed as cell-based, mouse. How it is done:
Quantification was performed using ImageJ software.
Total RNA was isolated using the mirVana miRNA isolation kit (Applied Biosystems). cDNA was synthesized using the QuantiMir RT Kit small RNA quantification system (SBI). qRT-PCR was performed as described previously. Mouse U6 was used as an endogenous control. The let-7d-3p mimic and inhibitor were purchased from Life Technologies (catalog numbers 4464066 and 4464084, respectively).

The subject of a further data set is Dnmt3a and DNMT3b. The experiment in a line: Dnmt3a and Dnmt3b expression in db/db HSCs (qRT-PCR, Western blot). The conditions noted are these: FIGS. 7E-F.
Data set [2] concerns mouse Dnmt1 3′ UTR region. The experiment in a line: Dnmt1 3' UTR luciferase reporter assay in HEK293T cells. The data set is classed as cell-based. Conditions: 48 h post-transfection, FIG. 8C. As to the method:
(§1) HEK293T cells grown in 96-well plates were transfected with pmirGLO containing the Dnmt1 3′ UTR region that includes the let-7d-3p binding sites. The cells were co-transfected with let-7d-3p using Lipofectamine (Invitrogen). The Firefly and Renilla luciferase activities in the cell lysates were assayed with a Dual-Luciferase Reporter Assay System (Promega) at 48 h post-transfection. To generate the mutant variants, point mutations in the binding sites of let-7d-3p in the 3′-UTR region of Dnmt1 were introduced by PCR according to the site-directed mutagenesis protocol from Agilent. The two mutants that were generated are labeled “Dnmt1 M1” and “Dnmt1 M2”. The binding sequence of let-7d-3p in mouse Dnmt1 3′UTR is: […]

Data set [3] relates to Dnmt1 M1 and Dnmt1 M2 (mutated let-7d-3p binding sites in Dnmt1 3′ UTR). In words: Mutant Dnmt1 3' UTR luciferase reporter assay in HEK293T cells. The data set is classed as cell-based, mouse. The conditions noted are these: FIG. 8C. How it is done:
as §1

Data set [4] concerns Notch1, PU.1 and Klf4 genes. In words: DNA methylation of Notch1, PU.1 and Klf4 by pyrosequencing. In kind it is cell-based, mouse. Conditions: db/db HSCs; FIG. 14A, FIG. 15, FIG. 16. How it is done:
Genomic DNA was isolated by traditional phenol-chloroform extraction and isopropanol precipitation. DNA concentration was measured using a Nano Drop spectrophotometer. Around 500 ng genomic DNA were bisulfite converted by EZ DNA methylation-Gold kit following the manufacturer's instructions (Zymo Research). PCR amplification was performed using 2×HiFi Hotstart Uracil+ready mix PCR (Kapa Biosystems). PCR and pyrosequencing primer sets with one biotin-labeled primer were used to amplify the bisulfite converted DNA. Primers were designed using PyroMark Assay Design software version 2.0.1.15 (Qiagen). The size of the amplicons was 200 bp or less. Briefly, 5 μl master mix, […] of each primer, 20 ng genomic DNA and ultra-pure water to a final volume of 10 μl were mixed for each reaction and run at thermal cycling conditions: 95° C. for 3 min and then 50 cycles: 20 sec at 98° C.; 15 sec at the optimized primer-specific annealing temperature; 15 sec at 72° C. and a final extension for 1 min at 72° C. […] PyroGold reagents were used for the pyrosequencing reaction and the signal was analyzed using the PSQ 96MA system (Biotage, Uppsala, Sweden). Target CGs were evaluated by instrument software (PSQ96MA 2.1), which converts the pyrograms to numerical values for peak heights and calculates the methylation at each base as a C/T ratio.

In data set [5] the test system is H3K9me2 and H3K9me3 at Klf4, PU.1 and Notch1 promoters. The experiment in a line: ChIP-PCR of H3K9 histone methylation at Notch1, PU.1 and Klf4. In kind it is cell-based, mouse. Conditions: db/db HSCs; FIG. 17B and FIG. 18. As to the method: 1×10^6 HSCs were sorted and cross-linked with 1% formaldehyde at room temperature for 10 min, and the reaction was stopped by adding Glycine to a final concentration of 0.125M and incubating at room temperature for 5 min. Cross-linked cells were lysed in lysis buffer and sonicated to 200-500 bp fragments (Bioruptor, Diagenode). The sonicated chromatin was centrifuged at 4° C. for 5 min. The cross-linked DNA was immunoprecipitated with H3K9me3, H3K9me2 or H3K9Ac antibodies (Millipore, USA) overnight at 4° C. with rotation, DNA-Antibody complexes were bound to ChIP beads, pulled down, washed and then eluted from the beads. Following reversal of cross-linkage, purified DNA was used for quantitative PCR using ChIP PCR primers purchased from IDT (MA, USA). Immunoprecipitation efficiency was calculated by normalizing sample CT values against control IgG values and calculating ratios of sample CT values relative to input values.

As to `CC(=O)N[C@@H](CS)C(=O)O` [N-acetylcysteine], in the data set on HSCs from db/db mice, the “oxidant stress in HSCs (DCF positive cells)” value is on record as “reversed”. The “monocyte concentration in bone marrow” value in data set [1] is given as “restored”. The “expression of DNMT1 in db/db HSCs” value in the data set on Dnmt1 (db/db HSCs, compared with WT HSCs, FIGS. 7E-F) was “restored”. For the same molecule, the “mRNA or protein levels of Dnmt3a and DNMT3b” value with Dnmt3a and DNMT3b is on record as “did not change”.
Regarding “let-7d-3p mimic: let-7d-3p mimic purchased from Life Technologies (catalog number 4464066); microRNA that binds the Dnmt1 3′ UTR (guide CUAUACGACCUGCUGCCUUUCU; chemistry not given here)”, the “Dnmt1 expression in db/db HSCs” value in the data set on Dnmt1 (db/db HSCs transfected, FIGS. 8F-G) is “decreased”. In addition, the “luciferase activity, intact 3′ UTR construct” value in data set [2] was “significantly repressed”. Besides, the “luciferase activity, let-7d-3p binding sites in Dnmt1 3′ UTR mutated” value in data set [3] is listed as “didn't affect”. In addition, in data set [4], the “methylation of Notch1, PU.1, Klf4” value is listed as “decreased”. For the same molecule, the “histone methylation levels (H3K9me2, H3K9me3)” value in data set [5] is listed as “decreased”.
